Assay results as given in patent US20090081143A1, “Extracts From Black Yeast For Whitening Skin” (priority 2007, published 2009).

Test system: UV-B induced tan
Experiment: Whitening action: fading of UV-B induced tan on the backs of volunteers (Minolta Chromameter reflectance)
Format: in vivo, human
Conditions: FIG. 5; 1% extract or 2% kojic acid in Example 4 cream; 2 mg/cm^2 once a day; nine volunteers
Description: A comparative study is done to determine the whitening efficacy of an Exophiala mansonii-derived enzyme extract in comparison to the efficacy of a known tyrosinase inhibitor, kojic acid. More specifically, the study was designed to study the lightening effect of these materials (reduction in tanning) using the fading of UV-B induced tan as a marker. Two samples are prepared. The first sample contains the composition described in Example 4. The second sample has the same composition as that described in Example 4 except that 2% kojic acid is substituted for the 1% Exophiala mansonii enzyme extract. Nine volunteers participate in the study. The volunteer panelists are in normal health with no evidence of acute or chronic disease including dermatological problems. […] Tanning is observed for six days after irradiation at which point color measurements are made using a Minolta Chromameter which measures the difference in reflectance of the skin, L. The change in the value of the difference in reflectance, ΔL*, is measured against a baseline skin color value of untreated irradiated skin measured on day 6. […] The observed reflectance values for all the time points are recorded, and the area under the curve for each test site was calculated. The Whitening Factor is calculated as the area under the curve of the treated site subtracted from the untreated site, and is shown in FIG. 5.

Compound: O=c1cc(CO)occ1O [kojic acid]
- Whitening Factor (area under the curve of the treated site subtracted from the untreated site): 1.8
